In article PMC8497620, “Structure and inhibition of Cryptococcus neoformans sterylglucosidase to develop antifungal agents” (Nature Communications, 2021):
Values joined by “and” are separate entries in the source; they are usually repeats but may differ in a detail not shown here. Identical values can stand only once. “Also recorded” adds a separate entry of the source.

Columns and labels:
C. neoformans H99 = format: in vivo, Cryptococcus neoformans; settings: Hit 1 intranasally, fluconazole intraperitoneally
Protocol: For animal studies, 4-week-old CBA/J (Envigo) female mice were used. Mouse experiments were performed in full compliance with a protocol approved by Stony Brook University (IACUC number 341588) and in compliance with the United States Animal Welfare Act (Public Law 98–198). The experiments were carried out in facilities accredited by the Association for Assessment and Accreditation of Laboratory Animal Care. Mice were divided into sets of 12 mice for each treatment or control group (4 animals per cage) kept in an animal room (temperature, 22–24 °C; relative humidity, 35–45%) with artificial 12–12 h dark/light cycle. For the experiment with intraperitoneal (i.p.) treatment, mice were infected intranasally with 10 µL of a suspension containing 1 × 10^6 C. neoformans H99 cells and subsequently treated through i.p. injection with 10 mg/kg/day of hit 1 in a final volume of 100 µL of vehicle containing 10% PEG 200 in PBS. The untreated animals received 100 µL of vehicle. For the experiment with intranasal (i.n.) treatment, mice were infected with 1 × 10^5 C. neoformans H99 cells and received i.n. treatment with hit 1 in a final volume of 10 µL. Another group received treatment with 10 mg/kg/day of fluconazole i.p. and a third group received the combined treatment of hit1 by i.n. and fluconazole by i.p. Animals receiving only vehicle i.n. were used as a control group. In both experiments, three mice of each group were euthanized at day 3, 6, 9, and 14 post infection for CFU recovery from lungs and CFU recovery from brain on day 14.

[1] = system: human lung epithelial cancer cell line A549; settings: A549 cells, 24 h, MTT
Protocol: The cells were maintained in Dulbecco’s modified eagle medium containing 10% fetal bovine serum and 1% penicillin–streptomycin. At passage 11, 10^5 cells were transferred into each well of 96-well plates and cultured for 18–24 h for the cells to adhere to the well surface. After, the medium was removed and a fresh medium containing the selected compounds at a concentration range of 1–512 μM were added to the wells. Controls with equivalent serial concentrations of DMSO were also evaluated and compared with a control without DMSO. The plate was incubated at 37 °C with 5% CO2. After 24 h, the supernatant was removed and 50 μL of 5 mg/mL 3-(4,5-dimethylthiazol-2-yl)-2,5-diphenyltetrazoliumbromide (MTT) solution in phosphate-buffered saline (PBS) was added to each well. The plates were incubated for an additional 4 h and the formazan crystals formed inside the cell was dissolved by adding 50 μL DMSO.

C. neoformans Sgl1 [2] = target: T1, C. neoformans Sgl1 (Cryptococcus neoformans var. grubii, UniProt J9W473); test: Sgl1 inhibition with res-glp substrate (HTS, single-compound dose-response); format: biochemical; settings: res-glp as substrate (100 µM), primary screen; read-out: IC50 against Sgl1
Protocol: Resorufin-3β-D-glucopyranoside (res-glp, Sigma-Aldrich) enzyme kinetic assays were performed according to methods described by Urban et al.[16] with modifications. Reaction buffer contained 50 mM citric acid, 176 mM K2HPO4, pH 6, 0.01% Tween-20, and 10 mM sodium taurocholate. The reactions were carried out in black 96-well plates using 20 ng of enzyme with 100 μM res-glp substrate. In all, 10 μL/well of res-glp substrate was added to each well and the reaction was initiated by adding 20 μL enzyme (20 ng). After incubation at 37 °C for 30–40 min, the fluorescence was read at an excitation of 570 (±10) nm and an emission of 610 (±10) nm on a VersaMax™ Microplate Reader from Molecular Devices. A standard curve was prepared with serial dilutions of the free fluorophore, resorufin, in the same volume of assay buffer.
A ChemBridge DIVERSet-CL library (San Diego, CA) containing 50,000 compounds was screened to identify small molecules that inhibit C. neoformans Sgl1. The library was prepared in a 96-well plate format containing a cocktail of 10 compounds per well at 1 mM each in 100% DMSO. The cocktail plates were first diluted to 100 μM each (1:10 dilution in Dulbecco’s phosphate-buffered saline, DPBS) resulting in 10% DMSO. In order to screen the compound cocktails at […] in 1% DMSO in a final reaction volume of 30 μL an aliquot of 3 μL was added to 17 μL of buffer containing 20 ng of enzyme and the reaction was started adding 10 μL of 100 μM res-glp. A negative control without enzyme and positive controls with and without DMSO were prepared. The plates were incubated at 37 °C for 40 min.
The Z′-factor was used for the assessment of the efficiency of the HTS assay for each individual plate. Values greater than 0.5 has been considered as an indicator of an excellent screening assay quality.

C. neoformans Sgl1 [3] = target: T1, C. neoformans Sgl1; test: Enzymatic evaluation of C. neoformans Sgl1 against the fungal glucosylceramide (LC-MS); format: biochemical; settings: 10 μg substrate, 10 or 50 μg Sgl1, pH 5.5, 37 °C, 4 h
Protocol: (§1) To verify the enzymatic activity of C. neoformans Sgl1 against the fungal long-chain glucosylceramide (GlcCer, OH-Δ8,9-methyl-glucosylceramide), kindly provided by Khojin (Japan). The reactions used 10 μg of substrate and 10 or 50 μg of C. neoformans Sgl1 or cerezyme (Genzyme Corporation, Cambridge, MA, USA) in 100 μL acetate buffer pH 5.5 incubated at 37 °C for 4 h[11]. The reaction was terminated by adding 300 μL of chloroform/methanol (1:1 ratio) and the lower phase was collected and dried. 9-Methyl-ceramide production was monitored by liquid chromatography-mass spectrometry (LC-MS).

[4] = Hydrolysis of fungal long-chain glucosylceramide by cerezyme (9-methyl-ceramide by LC-MS); format: biochemical; settings: 4 h; for 9-methyl ceramide: 10 μg fungal GlcCer, 37 °C
Protocol: as §1

T1 sequence (J9W473 entry or part of it): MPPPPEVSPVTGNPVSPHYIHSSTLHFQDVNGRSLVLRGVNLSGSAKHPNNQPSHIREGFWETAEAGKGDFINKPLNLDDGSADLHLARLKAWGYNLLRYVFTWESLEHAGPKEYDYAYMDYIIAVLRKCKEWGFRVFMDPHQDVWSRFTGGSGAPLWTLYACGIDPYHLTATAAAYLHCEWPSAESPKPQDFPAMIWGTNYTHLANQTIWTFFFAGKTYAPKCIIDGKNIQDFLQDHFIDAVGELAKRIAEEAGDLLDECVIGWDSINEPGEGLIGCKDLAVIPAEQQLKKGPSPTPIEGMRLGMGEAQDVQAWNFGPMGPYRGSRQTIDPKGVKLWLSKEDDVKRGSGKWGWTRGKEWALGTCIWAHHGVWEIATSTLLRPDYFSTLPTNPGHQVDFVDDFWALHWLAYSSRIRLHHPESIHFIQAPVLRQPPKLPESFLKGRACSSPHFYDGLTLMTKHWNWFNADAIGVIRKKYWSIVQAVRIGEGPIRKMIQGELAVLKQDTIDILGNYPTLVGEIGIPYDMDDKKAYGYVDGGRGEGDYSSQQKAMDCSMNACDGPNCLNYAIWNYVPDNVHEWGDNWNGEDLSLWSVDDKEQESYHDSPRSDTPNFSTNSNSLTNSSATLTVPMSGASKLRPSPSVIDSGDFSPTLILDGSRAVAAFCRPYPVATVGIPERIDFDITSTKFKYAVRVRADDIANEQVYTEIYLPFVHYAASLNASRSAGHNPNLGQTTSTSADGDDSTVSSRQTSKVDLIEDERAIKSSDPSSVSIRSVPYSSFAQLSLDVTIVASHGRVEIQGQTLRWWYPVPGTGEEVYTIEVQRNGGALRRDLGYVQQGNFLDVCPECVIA

OC(Cn1cncn1)(Cn1cncn1)c1ccc(F)cc1F [Fluconazole, fluconazole, reference compound]
lung CFU compared to vehicle (C. neoformans H99; 14 days of treatment): significant difference among CFU recovered from the lungs; also recorded: slightly reduced lung CFU | brain dissemination / CFU recovered from the brain (C. neoformans H99; 14 days): did not prevent C. neoformans brain dissemination | Lung (CFU/mL) (C. neoformans H99; day 6 post infection, 10 mg/kg/day each, 10 mg/kg/day): 60000 CFU/mL and 120000 CFU/mL and 92000 CFU/mL

CN1C[C@H](NS(=O)(=O)c2cc(Cl)ccc2Cl)C[C@H]1CO [Hit 13]
LD50 (lethal dose 50) [1]: 217.3 µM | IC50 (C. neoformans Sgl1 [2]): 2000 nM

CN1C[C@H](Nc2nc(C(C)(C)C)nc3c2cnn3C)C[C@H]1CO [Hit 14]
LD50 (lethal dose 50) [1]: 357 µM | IC50 (C. neoformans Sgl1 [2]): 1000 nM

CCCCCCCCCCCCCCCCC(O)C(=O)NC(COC1OC(CO)C(O)C(O)C1O)C(O)C=CCCC=C(C)CCCCCCCCC (centres unmarked) [fungal glucosylceramide, OH-Δ8,9-methyl-glucosylceramide]
hydrolysis by Sgl1 (C. neoformans Sgl1 [3]): unable to detect hydrolysis

B1: Cerezyme: recombinant human glucosylceramidase (Genzyme Corporation) (protein, chains of the INN, looked up)
chain: ARPCIPKSFGYSSVVCVCNATYCDSFDPPTFPALGTFSRYESTRSGRRMELSMGPIQANHTGTGLLLTLQPEQKFQKVKGFGGAMTDAAALNILALSPPAQNLLLKSYFSEEGIGYNIIRVPMASCDFSIRTYTYADTPDDFQLHNFSLPEEDTKLKIPLIHRALQLAQRPVSLLASPWTSPTWLKTNGAVNGKGSLKGQPGDIYHQTWARYFVKFLDAYAEHKLQFWAVTAENEPSAGLLSGYPFQCLGFTPEHQRDFIARDLGPTLANSTHHNVRLLMLDDQRLLLPHWAKVVLTDPEAAKYVHGIAVHWYLDFLAPAKATLGETHRLFPNTMLFASEACVGSKFWEQSVRLGSWDRGMQYSHSIITNLLYHVVGWTDWNLALNPEGGPNWVRNFVDSPIIVDITKDTFYKQPMFYHLGHFSKFIPEGSQRVGLVASQKNDLDAVALMHPDGSAVVVVLNRSSKDVPLTIKDPAVGFLETISPGYSIHTYLWHRQ
9-methyl ceramide ([4]; Cerezyme 10 μg): 221.543 pmol/mL and 250.417 pmol/mL and 226.634 pmol/mL and 267.483 pmol/mL | 9-methyl ceramide ([4]; Cerezyme 50 g (so in the source)): 243.428 pmol/mL and 279.737 pmol/mL and 384.828 pmol/mL and 393.256 pmol/mL | hydrolysis of fungal glucosylceramide ([4]; positive control, pH 5.5, 37 °C): readily hydrolyzed fungal glucosylceramide
